Reference: patent US20120108501A1, “Protease Inhibitors” (priority 2009, published 2012)
Where a name gives a salt, the structure may show the parent alone. Read-outs that look alike come from different tables or passages of the source.

Experiment: Pharmacokinetics of PEGylated protease inhibitor prodrugs in rats
Assay type: in vivo, male Sprague-Dawley rats
Set-up: AUCall / AUC: concentration or dose not given beside the values
Conditions: prodrug in plasma; for MRT last / concentration at 24 hr / AUC / Cmax / half-life: male, Sprague-Dawley, rat; for concentration at 24 hr: read-out: Cmin(24 hr); for AUC / Cmax: mean ± SD; for Cmax: read-out: Cmax; for half-life: read-out: t½(z) (converted)
Method: Pharmacokinetic analysis of protease inhibitors described herein was conducted. To evaluate the pharmacokinetics of PEGylated protease inhibitor conjugates with releasable lipophilic attachments, test compounds were administered to male Sprague-Dawley rats.
At various times following test article administration, serial blood samples were collected from indwelling jugular vein catheters and transferred to micro-tubes containing 7.5 μL of 20% w/v K2EDTA as an anticoagulant. Following processing of the blood samples to plasma (10 minutes at 10000 rpm, Centrifuge Model: Kubota 3500), plasma concentrations of the test article or corresponding PEGylated molecule released from the test article was measured using LC-MS/MS methods. Pharmacokinetic parameters were estimated using noncompartmental methods.
Table 3 presents a summary of pharmacokinetic parameters of PEGylated protease inhibitor prodrugs, wherein Cmax is the maximum (peak) concentration, AUCall represents the area under the concentration-time curve from zero to time of last concentration value, T½ is half life, and MRTlast is the mean residence time to last observable concentration

| MRT last (oral) | concentration at 24 hr (oral, 24 hr) | AUC (oral) | Cmax (oral) | half-life (oral) | Structure (SMILES) | MRT last (in vivo) | concentration at 24 hr (in vivo, 24 hr) | AUC (in vivo) | Cmax (in vivo) | half-life (in vivo) | Cmin(24 hr) (24 hr) |
| --- | --- | --- | --- | --- | --- | --- | --- | --- | --- | --- | --- |
|  |  |  |  |  | COCCOCCOCCOC(=O)N[C@H](C(=O)N[C@@H](Cc1ccccc1)[C@H](CN(Cc1ccc(-c2ccccn2)cc1)NC(=O)[C@@H](NC(=O)OC)C(C)(C)C)OC(=O)[C@H](Cc1ccccc1)NC(=O)[C@@H](N)Cc1ccccc1)C(C)(C)C [Phe-Phe-mPEG3-Atazanavir, Phe-Phe-mPEG3-Atazanavir Hydrochloride] | 6.27 ± 1.31 h | 3.15 ± 0.946 ng/mL | 609 ± 157 ng·h/mL | 112 ± 31.6 ng/mL | 8.31 ± 1.21 h |  |
|  |  |  |  |  | COCCOCCOCCOCCOCCOC(=O)N[C@H](C(=O)N[C@@H](Cc1ccccc1)[C@H](CN(Cc1ccc(-c2ccccn2)cc1)NC(=O)[C@@H](NC(=O)OC)C(C)(C)C)OC(=O)CNC(=O)[C@@H](N)C(C)C)C(C)(C)C [Val-Gly-mPEG5-Atazanavir HCl, Val-Gly-mPEG5-Atazanavir Hydrochloride] | 0.779 ± 0.513 h |  | 14.9 ± 18.7 ng·h/mL | 33.7 ± 53.9 ng/mL | 2.95 h |  |
|  |  |  |  |  | COCCOCCOCCOCCOCCOC(=O)N[C@H](C(=O)N[C@@H](Cc1ccccc1)[C@H](CN(Cc1ccc(-c2ccccn2)cc1)NC(=O)[C@@H](NC(=O)OC)C(C)(C)C)OC(=O)CNC(=O)[C@@H](N)CC(C)C)C(C)(C)C [Leu-Gly-mPEG5-Atazanavir HCl, Leu-Gly-mPEG5-Atazanavir Hydrochloride] | 2.85 ± 3.68 h |  | 1.53 ± 2.93 ng·h/mL | 0.479 ± 0.572 ng/mL |  |  |
| 11.4 ± 7.37 h | 2.64 ± 2.87 ng/mL | 78.5 ± 78.2 ng·h/mL | 13.1 ± 12.4 ng/mL |  | COCCOCCOCCOCCOCCOC(=O)N[C@@H](C(=O)N[C@@H](Cc1ccccc1)[C@H](CN(Cc1ccc(-c2ccccn2)cc1)NC(=O)[C@H](NC(=O)OC)C(C)(C)C)OC(=O)CCCC(=O)O[C@@H]1[C@@H](O)[C@@H](O)O[C@@H]1[C@H](O)CO)C(C)(C)C [(5R,10S,11S,14R)-11-benzyl-5,14-di-tert-butyl-3,6,13,16-tetraoxo-8-(4-(pyridin-2-yl)benzyl)-2,17,20,23,26,29,32-heptaoxa-4,7,8,12,15-pentaazatritriacontan-10-yl (2R,3R,4R,5S)-2-((R)-1,2-dihydroxyethyl)-4,5-dihydroxytetrahydrofuran-3-yl glutarate] |  |  |  |  |  |  |
|  |  |  |  |  | COCCOCCOCCOCCOCCOC(=O)N[C@H](C(=O)N[C@@H](Cc1ccccc1)[C@H](CN(Cc1ccc(-c2ccccn2)cc1)NC(=O)[C@@H](NC(=O)OC)C(C)(C)C)OC(=O)CNC(=O)[C@@H](N)Cc1ccccc1)C(C)(C)C [Phe-Gly-mPEG5-Atazanavir HCl, Phe-Gly-mPEG5-Atazanavir Hydrochloride] | 0.357 ± 0.129 h |  | 0.341 ± 0.313 ng·h/mL | 0.895 ± 0.808 ng/mL |  |  |
|  |  |  |  |  | COCCOCCOCCOC(=O)N[C@H](C(=O)N[C@@H](Cc1ccccc1)[C@H](CN(Cc1ccc(-c2ccccn2)cc1)NC(=O)[C@@H](NC(=O)OC)C(C)(C)C)OC(=O)[C@H](Cc1ccccc1)NC(=O)[C@@H](N)C(C)C)C(C)(C)C [Val-Phe-mPEG3-Atazanavir, Val-Phe-mPEG3-Atazanavir Hydrochloride] | 1.68 ± 0.297 h |  | 700 ± 361 ng·h/mL | 334 ± 133 ng/mL | 2.25 ± 1.28 h |  |
|  |  |  |  |  | COCCOCCOCCOCCOCCOC(=O)N[C@H](C(=O)N[C@@H](Cc1ccccc1)[C@H](CN(Cc1ccc(-c2ccccn2)cc1)NC(=O)[C@@H](NC(=O)OC)C(C)(C)C)OC(=O)[C@H](CC(C)C)NC(=O)[C@@H](N)Cc1ccccc1)C(C)(C)C [Phe-Leu-mPEG5-Atazanavir HCl, Phe-Leu-mPEG5-Atazanavir Hydrochloride] | 1.46 ± 0.396 h |  | 42.4 ± 11.6 ng·h/mL | 17 ± 4.2 ng/mL | 1.52 h | BLQ |
| 1.71 ± 0.327 h |  | 487 ± 348 ng·h/mL | 191 ± 85.6 ng/mL | 2.37 ± 2.19 h | COCCOCCOCCOCCOCCOC(=O)N[C@H](C(=O)N[C@@H](Cc1ccccc1)[C@H](CN(Cc1ccc(-c2ccccn2)cc1)NC(=O)[C@@H](NC(=O)OC)C(C)(C)C)OC(=O)[C@@H](N)CC(C)C)C(C)(C)C [mPEG5-Atazanavir-L-Leucine] |  |  |  |  |  |  |
